These are literature values, as cited in patent publication US20250120959A1, “NEW FORMULATIONS OF PITOLISANT AND METHODS OF USE” (Bioprojet Pharma, priority 2023, published 2025).

Structures can show the parent of a compound that is named as a salt.

`Clc1ccc(CCCOCCCN2CCCCC2)cc1` [Formula (Ia), 1-[3-[3-(4-chlorophenyl)propoxy]propyl]-piperidine monohydrochloride]: the pKa entry is “approximately 10.5”.
